Laboratory results: patent publication US11685739B2, “High penetration drugs and their compositions thereof for treatment of Parkinson diseases” (TECHFIELDS PHARMA CO., LTD, priority 2013, dated 2023)
Structures can show the parent of a compound that is named as a salt. Where two headings read alike, the source gives them in different places.

Key:
[1] = human, pH 7.4
[2] = system: motor function deficits induced by 6-OHDA in Parkinson's disease (PD) model; assay: Rotarod test in rats with 6-OHDA lesion, Parkinson's disease (PD) model; format: in vivo, Sprague-Dawley rats; details: Example 31
Experimental: Test subjects (Sprague-Dawley rats) were prepared, grouped, and tested following the protocol below: • 1. 200 Sprague-Dawley rats (male, 200-230 g) underwent brain stereotaxic surgery after 1 week acclamation in animal facility; • 2. After anesthesia, a bur hole (1 mm in diameter) was made on skull on the left side with a motor drill based on the coordinates: AP +0.5 mm, ML −2.8 mm, DV 6.0 mm relative to Bregma; • 3. 6-OHDA (20 μg at 5 mg/mL) or sterile saline was injected into the left striatum with a microsyringe fitted with a 26-gauge steel cannula. The chemical caused the retrograde neurodegeneration in the distal substantia nigra and impairs dopamine transmission in the nigro-striatal pathway, which eventually led to functional disturbance of motor activities; • 4. Apomorphine and classic rotation test was carried out to screen animals at the end of week 3 post 6-OHDA treatment. Animals that matched lesion type and apomorphine-induced rotational scores were allotted to 11 groups; and • 5. Rats were divided into 11 groups (n=12), each group was applied with the drug(s) at the doses specified in Table 2:
• 6. Dose Formulations • (1) L-DOPA in water (3 mg/mL) was the positive control solution for group 1 (orally for group 1, transdermally for groups 2-11). The volume of administration was 2 mL/kg. Vehicle solution (negative control solution for group 2) was 30% ethanol (v/v). The volume of administration was 1286 μL/kg. Other test solutions (groups 3-11) were freshly prepared every day. • (2) Preparation method of test solutions for groups 3-5: 50.33 mg of Drug A was dissolved in 10 mL of 30% ethanol(v/v). This solution was the stock solution[(2)a]. • a. The test solution for group 5 (high dose group) of Drug A: The stock solution [(2)a] was the test solution for Group 5. The volume of administration was 1286 μL/kg. • b. The test solution for group 4 (moderate dose group) of Drug A: 3.00 mL of the stock solution [(2)a] was diluted to final volume 9.00 mL with 30% ethanol(v/v). This solution was the test solution for Group 4. The volume of administration was 1286 μL/kg. • c. […]

[3] = system: motor function deficits induced by 6-OHDA in Parkinson's disease (PD) model; assay: as above; format: in vivo, Sprague-Dawley rats; details: for Efficacy in Rotarod test comparing to vehicle group and positive control group: four-week treatment; for Efficacy of low dose compared with moderate and high dose groups: 0.67 mg/kg transdermal (group 3) vs 2 mg and 6 mg/kg (groups 4 and 5)
[4] = Penetration rates through human skin in vitro, modified Franz cells; details: through human skin (360-400 μm), receiving fluid pH 7.4 phosphate buffer (0.2 M)

Compound | The cumulative amount of test compounds ([1]; 1 h) | The cumulative amount of test compounds ([1]; 2 h) | The cumulative amount of test compounds ([1]; 4 h) | The cumulative amount of test compounds ([1]; 8 h) | other results
CCN(CC)CCOC(=O)c1ccccc1OC(C)=O.Cl [Compound-29, 2-(diethylamino)ethyl 2-acetoxybenzoate hydrochloride] | 1.08 mg | 2.13 mg | 4.27 mg | 8.48 mg | Efficacy in Rotarod test comparing to vehicle group and positive control group ([2]; 30 mg and 90 mg/kg transdermal, three-week treatment): good efficacy
CC(C(=O)OCCCCN(C)C)c1cccc(Oc2ccccc2)c1.Cl (centres unmarked) [Drug F, 4-(dimethylamino)butyl 2-(3-phenoxyphenyl) Propionate Hydrochloride] | – | – | – | – | Efficacy in Rotarod test comparing to vehicle group and positive control group ([3]; Example 35, 20 mg and 60 mg/kg transdermal): good efficacy
Cl.NCCc1ccc(O)c(O)c1 [Compound-30, 4-(2-aminoethyl)benzene-1,2-diol hydrochloride] | – | – | – | – | The cumulative amount of test compounds ([4]; 1 h): 0.12 mg; The cumulative amount of test compounds ([4]; 2 h): 0.25 mg; The cumulative amount of test compounds ([4]; 4 h): 0.52 mg; The cumulative amount of test compounds ([4]; 8 h): 1.05 mg
CCCN(CCC)CCOC(=O)c1cc(-c2ccc(F)cc2F)ccc1OC(C)=O.Cl [Compound-27, 2-(dipropylamino)ethyl 4-acetoxy-2′,4′-difluoro-[1,1′-biphenyl]-3-carboxylate hydrochloride] | 1.01 mg | 2.03 mg | 4.11 mg | 8.25 mg | Efficacy in Rotarod test comparing to vehicle group and positive control group ([3]; Example 36, 15 mg and 45 mg/kg transdermal): good efficacy
CC(C)OC(=O)[C@@H](N)Cc1ccc(OC(=O)c2ccccc2)c(OC(=O)c2ccccc2)c1.Cl [Compound-11, (S)-4-(2-amino-3-isopropoxy-3-oxopropyl)-1,2-phenylene dibenzoate hydrochloride] | 0.58 mg | 1.15 mg | 2.33 mg | 4.71 mg | Efficacy of low dose compared with moderate and high dose groups ([3]; Example 31): much higher than that of the moderate and high dose groups; Side effects (dyskinesia at peak dose, end-of-dose deterioration of function etc.) ([2]; L-DOPA orally, pro-drug transdermally): avoided dyskinesia at peak dose, and end-of-dose deterioration of function
CC(=O)O.CCN(CC)CCOC(=O)C(C)c1ccc(CC(C)C)cc1 (centres unmarked) [Drug D, 2-(diethylamino)ethyl 2-(4-isobutylphenyl)propionate acetic acid salt] | – | – | – | – | Efficacy in Rotarod test comparing to vehicle group and positive control group ([3]; Example 33, 15 mg and 45 mg/kg transdermal): good efficacy
CC(C)Cc1ccc(C(C)C(=O)O)cc1 (centres unmarked) [Compound-33, 2-(ρ-isobutylphenyl)propionic acid] | – | – | – | – | The cumulative amount of test compounds ([4]; 1 h): 0.001 mg; The cumulative amount of test compounds ([4]; 2 h): 0.001 mg; The cumulative amount of test compounds ([4]; 4 h): 0.002 mg; The cumulative amount of test compounds ([4]; 8 h): 0.003 mg
Cl.NCCc1ccc(OC(=O)c2ccccc2)c(OC(=O)c2ccccc2)c1 [Compound-10, 4-(2-aminoethyl)-1,2-phenylene dibenzoate hydrochloride] | – | – | – | – | The cumulative amount of test compounds ([4]; 1 h): 0.68 mg; The cumulative amount of test compounds ([4]; 2 h): 1.35 mg; The cumulative amount of test compounds ([4]; 4 h): 2.74 mg; The cumulative amount of test compounds ([4]; 8 h): 5.55 mg
Br.CCC(CC)OC(=O)[C@@H](N)Cc1ccc(OC(=O)C(C)C)c(OC(=O)C(C)C)c1 [Compound-15, (S)-4-(2-amino-3-oxo-3-(pentan-3-yloxy)propyl)-1,2-phenylene bis(2-methylpropanoate) hydrobromide] | 0.55 mg | 1.08 mg | 2.23 mg | 4.41 mg | Efficacy of low dose compared with moderate and high dose groups ([3]; Example 33): much higher than that of the moderate and high dose groups; Side effects (dyskinesia at peak dose, end-of-dose deterioration of function etc.) ([3]; Example 33, L-DOPA orally, pro-drug transdermally): avoided dyskinesia at peak dose, and end-of-dose deterioration of function
C[C@@](Cc1ccc(O)c(O)c1)(NN)C(=O)O [carbidopa] | – | – | – | – | Effect on efficacy of L-Dopa and pro-drug of L-Dopa (Drug A) treated groups ([3]; Example 32, carbidopa 1.5 mg/kg orally, groups 1, 3, 4, 5, 6, 7, 9, 10, 4 weeks treatment): increased efficacy; Effect on efficacy of vehicle group and pro-drug of aspirin (Drug B) treated groups ([3]; Example 32, carbidopa 1.5 mg/kg orally, groups 2, 8 and 11, 4 weeks treatment): did not change the efficacy; Effect on efficacy of L-Dopa and pro-drug of L-Dopa treated groups ([3]; Example 34, carbidopa 1.5 mg/kg orally, groups 1, 3, 4, 5, 6, 7, 9, 10 (L-DOPA, Drug C), 4 weeks treatment): increased efficacy; Effect on efficacy of vehicle group and pro-drug of ibuprofen treated groups ([3]; Example 34, carbidopa 1.5 mg/kg orally, groups 2, 8 and 11 (Drug D), 4 weeks treatment): did not change the efficacy
CCCC(CCC)OC(=O)[C@@H](N)Cc1ccc(OC(=O)c2ccccc2)c(OC(=O)c2ccccc2)c1.Cl [Compound-12, (S)-4-(2-amino-3-(heptan-4-yloxy)-3-oxopropyl)-1,2-phenylene dibenzoate hydrochloride] | 0.53 mg | 1.07 mg | 2.13 mg | 4.29 mg | Efficacy of low dose compared with moderate and high dose groups ([3]; Example 36): much higher than that of the moderate and high dose groups
CNCC(=O)Oc1cc(C[C@H](NC(=O)OC(C)OC(=O)C(C)C)C(=O)OC(C)C)ccc1OC(=O)c1ccccc1 (stereo partly drawn) [Compound-21(b), 4-((2S)-2-(((1-(isobutyryloxy)ethoxy)carbonyl)amino-3-isopropoxy-3-oxopropyl)-2-(2-(methylamino)acetoxy)phenyl benzoate hydrochloride] | 0.51 mg | 1.05 mg | 2.08 mg | 4.19 mg | –
CC(OC(=O)NCCc1ccc2c(c1)OC(=O)CC(N)C(=O)O2)OC(=O)C(C)C (centres unmarked) [Compound-8b, 1-(((2-(3-amino-2,5-dioxo-2,3,4,5-tetrahydrobenzo[b][1,4]dioxocin-8-yl)ethyl)carbamoyl)oxy)ethyl isobutyrate hydrofluoride] | 0.62 mg | 1.24 mg | 2.47 mg | 4.85 mg | –
